# According to patent US11591336B2 (Relay Therapeutics, Inc., priority 2017, dated 2023):
# pIC50: −log10 of the molar value. Where a name gives a salt, the structure may show the parent alone.
# Target: SHP2 (Homo sapiens (Human), UniProt Q06124)
# Assay: SHP2 Allosteric Inhibition Assay (DiFMUP prompt fluorescence)
# Assay type: biochemical
# Conditions: 0.25 nM SHP2 activated with 0.5 μM peptide IRS1_pY1172(dPEG8)pY1222; substrate DiFMUP 100 μM; 25° C.
row,pIC50,SMILES
1,> 6.00,C[C@@H]1OCC2(CCN(c3cnc4c(N5CCCc6c(C#N)cccc65)n[nH]c4n3)CC2)[C@@H]1N [Compound 386]
2,> 6.00,CC(C)N1CCN(c2n[nH]c3nc(N4CCC5(CC4)CO[C@@H](C)[C@H]5N)cnc23)c2cccnc21 [Compound 387]
3,5.00 to 6.00,C[C@@H]1OCC2(CCN(c3cnc4c(N5CCCc6c5ccc(C#N)c6S(C)(=O)=O)n[nH]c4n3)CC2)[C@@H]1N [Compound 388]
4,> 6.00,Cc1nnc(-c2cccc3c2CCCN3c2n[nH]c3nc(N4CCC5(CC4)CO[C@@H](C)[C@H]5N)cnc23)o1 [Compound 389]
5,> 6.00,COCc1cccc2c1CCCN2c1n[nH]c2nc(N3CCC4(CC3)CO[C@@H](C)[C@H]4N)cnc12 [Compound 390]
6,> 6.00,COC(=O)N1CCN(c2n[nH]c3nc(N4CCC5(CC4)CO[C@@H](C)[C@H]5N)cnc23)c2ccccc21 [Compound 391]
7,> 6.00,C[C@@H]1OCC2(CCN(c3cnc4c(N5CCCc6c5cccc6N5CCCS5(=O)=O)n[nH]c4n3)CC2)[C@@H]1N [Compound 392]
8,> 6.00,C[C@@H]1OCC2(CCN(c3cnc4c(N5CCCc6sccc65)n[nH]c4n3)CC2)[C@@H]1N [Compound 394]
9,> 6.00,C[C@@H]1OCC2(CCN(c3cnc4c(N5CCN(C)c6cc(-c7ncco7)ccc65)n[nH]c4n3)CC2)[C@@H]1N [Compound 395]
10,> 6.00,"C[C@@H]1OCC2(CCN(c3cnc4c(N5CCCc6nc(C7=CCCCC7)ccc65)n[nH]c4n3)CC2)[C@@H]1N [Compound 396, (3S,4S)-8-{3-[6-(cyclohex-1-en-1-yl)-1,2,3,4-tetrahydro-1,5-naphthyridin-1-yl]-1H-pyrazolo[3,4-b]pyrazin-6-yl}-3-methyl-2-oxa-8-azaspiro[4.5]decan-4-amine hydrochloride]"
11,> 6.00,"C/C(=N/O)c1ccc2c(n1)CCCN2c1n[nH]c2nc(N3CCC4(CC3)CO[C@@H](C)[C@H]4N)cnc12 [Compound 397, (3,4S)-8-(3-{6-[(1Z)-1-(hydroxyimino)ethyl]-1,2,3,4-tetrahydro-1,5-naphthyridin-1-yl}-1H-pyrazolo[3,4-b]pyrazin-6-yl)-3-methyl-2-oxa-8-azaspiro[4.5]decan-4-amine]"
12,> 6.00,C[C@@H]1OCC2(CCN(c3cnc4c(N5CCN(C6COC6)c6cc(C#N)ccc65)n[nH]c4n3)CC2)[C@@H]1N [Compound 398]
13,> 6.00,CNC(=O)CN1CCN(c2n[nH]c3nc(N4CCC5(CC4)CO[C@@H](C)[C@H]5N)cnc23)c2ccc(C#N)cc21 [Compound 399]
14,> 6.00,C[C@@H]1OCC2(CCN(c3cnc4c(N5CCCc6c([C@H]7CCOC7)cccc65)n[nH]c4n3)CC2)[C@@H]1N [Compound 400]
15,> 6.00,C[C@@H]1OCC2(CCN(c3cnc4c(N5CCCc6c([C@@H]7CCOC7)cccc65)n[nH]c4n3)CC2)[C@@H]1N [Compound 401]
16,> 6.00,C[C@@H]1OCC2(CCN(c3cnc4c(N5CCN([C@H]6CCOC6)c6cc(C#N)ccc65)n[nH]c4n3)CC2)[C@@H]1N [Compound 402]
17,> 6.00,C[C@@H]1OCC2(CCN(c3cnc4c(N5CCN([C@@H]6CCOC6)c6cc(C#N)ccc65)n[nH]c4n3)CC2)[C@@H]1N [Compound 403]
18,> 6.00,"CNC(=O)c1nccc2c1CCCN2c1n[nH]c2nc(N3CCC4(CC3)CO[C@@H](C)[C@H]4N)cnc12 [Compound 404, 1-{6-[(3S,4S)-4-amino-3-methyl-2-oxa-8-azaspiro[4.5]decan-8-yl]-1H-pyrazolo[3,4-b]pyrazin-3-yl}-N-methyl-1,2,3,4-tetrahydro-1,6-naphthyridine-5-carboxamide]"
19,> 6.00,CCN1CCN(c2n[nH]c3nc(N4CCC5(CC4)CO[C@@H](C)[C@H]5N)cnc23)c2ccc(C#N)cc21 [Compound 405]
20,> 6.00,COCCN1CCN(c2n[nH]c3nc(N4CCC5(CC4)CO[C@@H](C)[C@H]5N)cnc23)c2ccc(C#N)cc21 [Compound 406]
21,> 6.00,Cc1nnc(-c2ccc3c(n2)CCCN3c2n[nH]c3nc(N4CCC5(CC4)CO[C@@H](C)[C@H]5N)cnc23)s1 [Compound 407]
